Measurements as given in ChEMBL document CHEMBL1132526, “Spiro-imidazo[1,2-a]indeno[1,2-e]pyrazine-4-one derivatives are mixed AMPA and NMDA glycine-site antagonists active in vivo” (Bioorg Med Chem Lett, 1999).

Tests used:
[1] = biological target: T1, Glutamate receptor ionotropic, AMPA (Rattus norvegicus, UniProt P19490+P19491+P19492+P19493); assay: In vitro binding affinity towards ionotropic glutamate receptor AMPA using [3H]AMPA as radioligand in rat cortical membrane preparations; assay type: cell membranes
Mus musculus [2] = assay: In vivo activity determined by Maximum electroshock induced seizures (MES) assay in mice after ip administration; assay type: functional
Glutamate NMDA receptor = assay: In vitro binding affinity towards glycine modulatory site on the NMDA receptors using [3H]DCKA as radioligand in rat cortical membrane preparations; assay type: cell membranes
[3] = biological target: T1, Glutamate receptor ionotropic, AMPA; assay: In vitro binding affinity towards Ionotropic glutamate receptor AMPA using [3H]AMPA as radioligand in rat cortical membrane preparations; assay type: cell membranes
Mus musculus [4] = assay: In vivo activity determined by Maximum electroshock induced seizures (MES) assay in mice after iv administration; assay type: functional
[5] = Mus musculus, ip, read-out: ED50

SMILES | IC50 [1] | IC50 (Glutamate NMDA receptor) | IC50 [3] | ED50 (Mus musculus [2]; [5]) | ED50 (Mus musculus [2]) | ED50 (Mus musculus [4]; Mus musculus, iv, read-out: ED50) | ED50 (Mus musculus [4])
CN1CCCC12c1ccccc1-c1nc(O)c3nccn3c12 (stereo in doubt; (+)-3e) | 86 nM | 172 nM |  |  | 17 mg/kg | 7 mg/kg | 
O=c1[nH]c2cc(-n3ccnc3)c([N+](=O)[O-])cc2[nH]c1=O [YM-90K] | 350 nM | 10400 nM |  | 12 mg/kg |  |  | 
Oc1nc2c(n3ccnc13)C1(CCNCC1)c1ccccc1-2 | 380 nM | 2000 nM |  |  |  |  | 
O=C(O)CCC(=O)N1CCCC12c1ccccc1-c1nc(O)c3nccn3c12 (configuration not stated) | 360 nM | 10000 nM |  | 10 mg/kg |  |  | 
CN1CCCC12c1ccccc1-c1nc(O)c3nccn3c12 (stereo in doubt; 3e) | 200 nM | 420 nM |  |  | 31 mg/kg |  | 10 mg/kg
Oc1nc2c(n3ccnc13)C1(CCCCN1)c1ccccc1-2 (configuration not stated) | 390 nM | 1180 nM |  | 45 mg/kg |  |  | 
Oc1nc2c(n3ccnc13)Cc1ccccc1-2 | 760 nM | 3000 nM |  | 62 mg/kg |  |  | 
CN1CCCC12c1ccccc1-c1nc(O)c3nccn3c12 (single isomer, unassigned; (-)) | 4900 nM | 1160 nM |  |  | 80 mg/kg |  | 
O=C(O)[C@@H]1C[C@H]2C[C@@H](CCc3nn[nH]n3)CC[C@H]2CN1 [TEZAMPANEL ANHYDROUS] | 600 nM | > 10000 nM |  | 4 mg/kg |  |  | 
CNC1(C)c2ccccc2-c2nc(O)c3nccn3c21 (configuration not stated) | 3400 nM | 2740 nM |  |  |  |  | 
NCC(=O)N1CCCC12c1ccccc1-c1nc(O)c3nccn3c12 (configuration not stated) | 830 nM | 2800 nM |  | 70 mg/kg |  |  | 
O=C1CCC2(N1)c1ccccc1-c1nc(O)c3nccn3c12 (configuration not stated) | 1500 nM | 1700 nM |  |  |  |  | 

More lines, main results first:

IC50 [1] | IC50 (Glutamate NMDA receptor) | IC50 [3] | SMILES | ED50 (Mus musculus [2]; [5]) | ED50 (Mus musculus [2]) | ED50 (Mus musculus [4]; Mus musculus, iv, read-out: ED50) | ED50 (Mus musculus [4])
620 nM | 530 nM |  | CCN1CCCC12c1ccccc1-c1nc(O)c3nccn3c12 (configuration not stated) | 54 mg/kg |  |  | 
610 nM | 560 nM |  | CC(=O)N1CCCC12c1ccccc1-c1nc(O)c3nccn3c12 (configuration not stated) |  |  |  | 
10000 nM | 900 nM |  | O=C(NCc1ccccc1)N1CCCC12c1ccccc1-c1nc(O)c3nccn3c12 (configuration not stated) |  |  |  | 
200 nM | 640 nM |  | Oc1nc2c(n3ccnc13)C1(CCNC1)c1ccccc1-2 (configuration not stated) | > 80 mg/kg |  |  | 
1700 nM | 300 nM |  | CCCCC1(N)c2ccccc2-c2nc(O)c3nccn3c21 (configuration not stated) |  |  |  | 
 | 280 nM | 250 nM | Oc1nc2c(n3ccnc13)C1(CCCN1)c1ccccc1-2 (configuration not stated) | 80 mg/kg |  |  | 
4000 nM | 1700 nM |  | CNC(=O)N1CCCC12c1ccccc1-c1nc(O)c3nccn3c12 (configuration not stated) |  |  |  | 
2300 nM | 600 nM |  | Oc1nc2c(n3ccnc13)C1(CC1)c1ccccc1-2 |  |  |  | 
4400 nM | 1000 nM |  | CC1(C)c2ccccc2-c2nc(O)c3nccn3c21 |  |  |  | 
> 10000 nM | 600 nM |  | CC(C)(C)OC(=O)N1CCCC12c1ccccc1-c1nc(O)c3nccn3c12 (configuration not stated) |  |  |  | 
2500 nM | 1400 nM |  | CC1(N)c2ccccc2-c2nc(O)c3nccn3c21 (configuration not stated) | 30 mg/kg |  |  | 
4300 nM | 470 nM |  | CCCN1CCCC12c1ccccc1-c1nc(O)c3nccn3c12 (configuration not stated) |  |  |  | 
420 nM | 520 nM |  | CCCC1(N)c2ccccc2-c2nc(O)c3nccn3c21 (configuration not stated) | 80 mg/kg |  |  | 
7100 nM | 130 nM |  | O=C(Nc1ccccc1)N1CCCC12c1ccccc1-c1nc(O)c3nccn3c12 (configuration not stated) |  |  |  | 
1600 nM | 1400 nM |  | Oc1nc2c(n3ccnc13)C1(CCCC1)c1ccccc1-2 |  |  |  | 
10000 nM | 1300 nM |  | Oc1nc2c(n3ccnc13)C1(CCCN1Cc1ccccc1)c1ccccc1-2 (configuration not stated) |  |  |  | 
